Consider two substances from US20080219917A1, “HARMONIZED WATER AND AQUEOUS SOLUTIONS” (DVB GLOBAL, priority 2007, published 2008).

One data set has as its system Salmonella typhimurium. Nature of the data set: Salmonella typhimurium reverse mutation assay (AMES test). Type of data set: cell-based. An excerpt:
Toxicity test for harmonized, Modified Fullerenes has shown this substance is not cytotoxic when the material is subjected to a Salmonella typhimurium reverse mutation assay (AMES test). The Ames test is used to determine any potential mutagenic activity of the test HMF material. The HMF material was exposed to a large number of test organism in an agar plate. The agar plates were monitored for growth of revertants (organisms mutating to the wild type). The number of wild type organisms are counted to estimate the mutagenic potential of the HMF material.

For data set [1], the system named is human dermal fibroblasts, human liver carcinoma cells (HepG2), and neuronal human astrocytes. As to conditions: same experiments (Sayes, 2004); cited from earlier work.

On to [C60(OH)10-36]^Φ/φ [HMF], for which, in the data set with Salmonella typhimurium (Toxicity test, AMES test), the cytotoxicity result is given as “not cytotoxic”. Moreover, the “mutagenic potential (growth of revertants)” value in the data set with Salmonella typhimurium (agar plate) is “not mutagenic”.

For the substance C60(OH)24 [Modified Fullerenes], the cytotoxicity entry in data set [1] is given as “no cytotoxicity”.
